In patent US11485728B2, “Small molecules for the treatment of autoimmune diseases and cancer” (Athos Therapeutics, Inc., priority 2020, dated 2022):

Test system: colon cell line HCT
Assay: Gene expression (RNA-Seq) of colon cancer cells treated with Compound 156
Assay type: cell-based, Human
Experimental: Methods: RNA was extracted from HTC colon cancer cells that has been treated or not with Compound 156 and was sent to the Technology Center for Genomics & Bioinformatics at UCLA for sequencing.
Library construction and sequencing methods: Libraries for RNA-Seq were prepared with TruSeq Stranded mRNA Library Prep Kit. The workflow consists of mRNA enrichment and fragmentation. Cleaved RNA fragments are copied into first strand cDNA using reverse transcriptase and random primers. Strand specificity is achieved by replacing dTTP with dUTP and followed by second strand cDNA synthesis using DNA Polymerase I and RNase H. cDNA generation is followed by A-tailing, adaptor ligation and PCR amplification. Different adaptors were used for multiplexing samples in one lane. Sequencing was performed on Illumina NovaSeq 6000 for PE 2×50 run. Data quality check was done on Illumina SAV. Demultiplexing was performed with Illumina Bcl2fastq v2.19.1.403 software.
Bioinformatics methods: The reads were mapped by STAR 2.27a to Human GRCh38 genome and read counts per gene were quantified using Ensembl Human GRCh38.98 GTF file. Gene differential expression analysis and downstream gene enrichment analysis was performed at Athos Therapeutics. The DESeq2 R package was used for differential expression analysis. DESeq2 FDR cutoff: 0.05, DESeq2 Log 2FC cutoff: 1 (FC cutoff: 2). Gene enrichment analysis was performed using the Enrichr (https://maayanlab.cloud/Enrichr/enrich) and gprofiler (https://biit.cs.ut.ee/gprofiler/gost) platforms.

[1] = cell cycle pathway, colon cell line HCT
[2] = p53 pathway, colon cell line HCT

## COc1cc2c(NC3CCN(C(C)C)CC3)nc(-n3ccnc3)nc2cc1OCCCN1CCCC1 [Compound 156, 2-(1H-imidazol-1-yl)-N-(1-isopropylpiperidin-4-yl)-6-methoxy-7-(3-(pyrrolidin-1-yl)propoxy)quinazolin-4-amine]
[1]
  Log2 Fold Change BUB1: −5.157
  Log2 Fold Change BUB1B: −4.7094
  Log2 Fold Change CCNA2: −5.163
  Log2 Fold Change CCNB1: −4.231
  Log2 Fold Change CCNB2: −5.041
  Log2 Fold Change CCNE2: −5.409
  Log2 Fold Change CDC6: −4.121
  Log2 Fold Change CDC7: −2.499
  Log2 Fold Change CDC20: −4.826
  Log2 Fold Change CDC25A: −2.858
  Log2 Fold Change CDC25C: −5.142
  Log2 Fold Change CDC45: −4.679
  Log2 Fold Change CDK1: −4.779
  Log2 Fold Change CDKN2C: −5.14
  Log2 Fold Change CHEK1: −1.994
  Log2 Fold Change CHEK2: −2.186
  Log2 Fold Change DBF4: −2.536
  Log2 Fold Change E2F1: −4.309
  Log2 Fold Change E2F2: −5.296
  Log2 Fold Change ESPL1: −4.821
  Log2 Fold Change MAD2L1: −4.388
  Log2 Fold Change MCM2: −3.686
  Log2 Fold Change MCM3: −2.599
  Log2 Fold Change MCM4: −3.347
  Log2 Fold Change MCM5: −4.183
  Log2 Fold Change MCM6: −3.834
  Log2 Fold Change MCM7: −3.817
  Log2 Fold Change ORC1: −4.987
  Log2 Fold Change ORC6: −3.9103
  Log2 Fold Change PKMYT1: −3.971
  Log2 Fold Change PLK1: −4.8821
  Log2 Fold Change PTTG1: −2.317
  Log2 Fold Change RBL1: −3.043
  Log2 Fold Change SKP2: −2.823
  Log2 Fold Change SMC1A: −1.934
  Log2 Fold Change TTK: −4.824
  Log2 Fold Change WEE1: −2.394
Data not shown
  number of genes activated by p53 that were upregulated: > 80 genes
  number of genes regulated by E2F-1 and E2F-4 that were downregulated: > 500 genes
[2]
  Log2 Fold Change CCND1: 1.792
  Log2 Fold Change CD82: 1.878
  Log2 Fold Change CDKN1A: 3.19
  Log2 Fold Change FAS: 2.667
  Log2 Fold Change GADD45A: 1.969
  Log2 Fold Change MDM2: 3.166
  Log2 Fold Change PMAIP1: 3.102
  Log2 Fold Change RRM2B: 2.678
  Log2 Fold Change SERPINB5: 2.471
  Log2 Fold Change SERPINE1: 3.232
  Log2 Fold Change SESN1: 1.955
  Log2 Fold Change SESN2: 2.19
  Log2 Fold Change THBS1: 1.872
  Log2 Fold Change TP53I3: 3.87
  Log2 Fold Change ZMAT3: 3.367
Treated vs not treated
  genes related to cell cycle: downregulated
  p-53 related genes: upregulated
